{"source": "patent US12544375B2", "about": "“Small molecule therapeutic for parkinson's disease paired with a biomarker of therapeutic activity” (The Board of Trustees of the Leland Stanford Junior …, priority 2019, dated 2026)", "tested_on": "LRRK2^G2019S, PINK1 null and SNCA^A53T flies", "experiment": "Adult fly climbing ability (negative geotaxis)", "type": "in vivo", "settings": "2.5 μM in food, two models (LRRK2 and PINK1)", "protocol": "FIG. 4A-FIG. 4I. Miro1 Reducer Rescues PD-Relevant Phenotypes in Flies. For all panels, when Miro1 Reducer was not added, the same volume of the solvent, DMSO, was supplied in fly food. Drug administration (2.5 μM) was started from day 2. (FIG. 4A-FIG. 4C) Survival curves of LRRK2^G2019S (FIG. 4A), PINK1^B9 (imprecise excision, null) and PINK1^RV (the precise excision control for PINK1^B9) (FIG. 4B), and SNCA^A53T flies (FIG. 4C). n=58-150. (FIG. 4D) Dopaminergic (DA) neurons in the PPM1/2 clusters of 22-day old flies were immunostained with anti-TH. (FIG. 4D-FIG. 4F) Quantification of the DA neuron number in the PPL1 or PPM1/2 cluster (total number divided by 2 for each brain). (FIG. 4D) LRRK2^G2019S. n=6-8 brains. […]\nFly climbing (negative geotaxis) ability was evaluated as previously described. Briefly, adult flies were gently tapped to the base of a modified 25 ml climbing tube and their climbing progress was recorded after 45 sec. Three populations of flies were assessed, and for each population, flies were examined 3 times per experiment. The recorded values were used to calculate Average Performance Index (PI). […] If the fly flew away, it was recorded as “1”, and if it was unable to fly, it was recorded as “0”. Wing posture was assessed by viewing each fly through a vial under a dissecting microscope. […] A normal wing posture or thorax (Course et al., 2018) was scored as “1”, otherwise “0”. […]"}
{"smiles": "O=C(Nc1ccc(Nc2cc(-n3ccnc3)ncn2)cc1)Nc1cccc(F)c1", "note": "[Miro1 Reducer]", "values": [{"measurement": "locomotor decline (climbing ability)", "result": "significantly rescued"}]}
